Data reported in patent US20240041042A1, “1-(PYRIDYL)-5-AZINYLPYRAZOLE DERIVATIVES, AND THEIR USE FOR CONTROL OF UNDESIRED PLANT GROWTH” (Bayer Aktiengesellschaft, priority 2020, published 2024).
Read-outs that look alike come from different tables or passages of the source.

Legend:
Type in all cases: in vivo
[1] = tested on: Abutilon theophrasti (ABUTH); assay: Post-emergence herbicidal action against ABUTH; conditions: visual rating about 3 weeks after treatment vs untreated controls (100% = plants have died, 0% = like control plants)
In short: (§1)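 Doses of 320 g/ha or lower, suffixes a, b and c marking different dosages, were applied post-emergence at the one-leaf stage in 600 l/ha water with 0.5% additive. Damage was assessed visually after about 3 weeks in the greenhouse.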

[2] = tested on: Alopecurus myosuroides (ALOMY); assay: Post-emergence herbicidal action against ALOMY; conditions: visual rating about 3 weeks after treatment vs untreated controls (100% = plants have died, 0% = like control plants)
In short: as §1

[3] = tested on: Amaranthus retroflexus (AMARE); assay: Post-emergence herbicidal action against AMARE
In short: as §1

Avena fatua (AVEFA) = assay: Post-emergence herbicidal action against AVEFA; conditions: visual rating about 3 weeks after treatment
In short: as §1

[4] = tested on: Digitaria sanguinalis (DIGSA); assay: Post-emergence herbicidal action against DIGSA; conditions: visual rating about 3 weeks after treatment
In short: as §1

[5] = tested on: Echinochloa crus-galli (ECHCG); assay: Post-emergence herbicidal action against ECHCG
In short: as §1

Lolium rigidum (LOLRI) = assay: Post-emergence herbicidal action against LOLRI
In short: as §1

[6] = tested on: Matricaria inodora (MATIN); assay: Post-emergence herbicidal action against MATIN
In short: as §1

[7] = tested on: Pharbitis purpurea (PHBPU); assay: Post-emergence herbicidal action against PHBPU
In short: as §1

[8] = tested on: Polygonum convolvulus (POLCO); assay: Post-emergence herbicidal action against POLCO
In short: as §1

Setaria viridis (SETVI) = assay: Post-emergence herbicidal action against SETVI
In short: as §1

[9] = tested on: Verconica persica (VERPE); assay: Post-emergence herbicidal action against VERPE
In short: as §1

Viola tricolor (VIOTR) = assay: Post-emergence herbicidal action against VIOTR
In short: as §1

Oryza sativa (ORYSA) = conditions: crop plant compatibility
In short: (§2)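 Greenhouse crops in sandy loam sprayed post-emergence at the one-leaf stage, 2–3 weeks after sowing, with WP or EC formulations in water plus 0.5% additive at 600 l/ha. Damage rated visually about 3 weeks later versus untreated controls (0% = like control, 100% = dead); suffixes a–c denote different doses.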

Zea mays (ZEAMX) = conditions: for Post-emergence action against ZEAMX in % (crop plant compatibility): 20 g/ha, effect in comparison to untreated controls
In short: as §2

[10] = 320 g/ha, visual rating about 3 weeks after treatment
[11] = 20 g/ha, effect vs untreated controls

Post-emergence action against ORYSA in % (Oryza sativa (ORYSA); [11])	Compound	Post-emergence action against ABUTH in % ([1]; 320 g/ha)	Post-emergence action against ALOMY in % ([2]; 320 g/ha)	Post-emergence action against AMARE in % [3, 10]	Post-emergence action against AVEFA in % (Avena fatua (AVEFA); 320 g/ha)	Post-emergence action against DIGSA in % ([4]; 320 g/ha)	Post-emergence action against ECHCG in % ([5]; dosage 80 g/ha)	Post-emergence action against ECHCG in % ([5]; dosage 320 g/ha)	Post-emergence action against LOLRI in % (Lolium rigidum (LOLRI); dosage 80 g/ha)	Post-emergence action against LOLRI in % (Lolium rigidum (LOLRI); dosage 320 g/ha)	Post-emergence action against MATIN in % ([6]; dosage 320 g/ha)	Post-emergence action against PHBPU in % ([7]; dosage 320 g/ha)	Post-emergence action against POLCO in % ([8]; dosage 320 g/ha)	Post-emergence action against SETVI in % (Setaria viridis (SETVI); dosage 80 g/ha)	Post-emergence action against SETVI in % (Setaria viridis (SETVI); dosage 320 g/ha)	Post-emergence action against VERPE in % ([9]; 320 g/ha, VERPE)	Post-emergence action against VERPE in % ([9]; dosage 80 g/ha)	Post-emergence action against VIOTR in % (Viola tricolor (VIOTR); 80 g/ha)	Post-emergence action against VIOTR in % (Viola tricolor (VIOTR); 320 g/ha)	Post-emergence action against ALOMY in % ([2]; 80 g/ha)	other results
0%	O=C(COc1nn(-c2ncccc2F)c(-c2ccc(F)nc2)c1C1CC1)OCC1CCCO1 (stereo not shown) [Example I-274]	80%	90%	90%	90%	90%	80%	90%	80%	90%	90%	80%	80%	90%	90%	90%	90%	80%	90%	–	Post-emergence action against ZEAMX in % (crop plant compatibility) (Zea mays (ZEAMX)): 10%; Post-emergence action against ZEAMX in % (Zea mays (ZEAMX); crop plant compatibility, 80 g/ha, effect vs untreated controls): 20%
10%	COC(=O)C(C)COC(=O)C(C)Oc1nn(-c2ccccn2)c(-c2ccc(F)nc2)c1Br (stereo not shown) [Example I-285]	80%	90%	–	80%	90%	–	80%	80%	90%	80%	90%	80%	90%	90%	80%	80%	80%	80%	90%	Post-emergence action against DIGSA in % ([4]; 80 g/ha): 80%; Post-emergence action against PHBPU in % ([7]; dosage 80 g/ha): 80%; Post-emergence action against ORYSA in % (Oryza sativa (ORYSA); 80 g/ha, effect in comparison to untreated controls): 10%; Post-emergence action against ZEAMX in % (crop plant compatibility) (Zea mays (ZEAMX)): 10%
20%	CCOC(=O)[C@@H](C)Oc1nn(-c2ncccc2F)c(-c2cncc(F)c2)c1C1CC1 [Example I-172]	80%	90%	80%	90%	90%	80%	90%	90%	90%	90%	90%	80%	80%	80%	90%	80%	80%	90%	90%	Post-emergence action against AVEFA in % (Avena fatua (AVEFA); 80 g/ha): 80%; Post-emergence action against DIGSA in % ([4]; 80 g/ha): 80%; Post-emergence action against MATIN in % ([6]; dosage 80 g/ha): 90%; Post-emergence action against PHBPU in % ([7]; dosage 80 g/ha): 80%
0%	CCOC(=O)[C@@H](C)Oc1nn(-c2ncccc2F)c(-c2cncc(F)c2)c1Br [Example I-227]	90%	90%	90%	90%	90%	90%	100%	80%	90%	90%	100%	90%	90%	90%	90%	90%	90%	90%	80%	Post-emergence action against ABUTH in % ([1]; 80 g/ha): 90%; Post-emergence action against AMARE in % ([3]; 80 g/ha, visual rating about 3 weeks after treatment vs untreated controls (100% = plants have died, 0% = like control plants)): 90%; Post-emergence action against AVEFA in % (Avena fatua (AVEFA); 80 g/ha): 90%; Post-emergence action against DIGSA in % ([4]; 80 g/ha): 80%; Post-emergence action against MATIN in % ([6]; dosage 80 g/ha): 80%; Post-emergence action against PHBPU in % ([7]; dosage 80 g/ha): 90%; Post-emergence action against POLCO in % ([8]; dosage 80 g/ha): 90%
